From article PMC12391391, “The balance between B55α and Greatwall expression levels predicts sensitivity to Greatwall inhibition in cancer cells” (Nature Communications, 2025)
pIC50: −log10 of the molar value.

What was measured:
Experiment in all cases: biochemical
[1] = target: T1, PRKD2 (Homo sapiens, UniProt Q9BZL6); set-up: LanthaScreen kinase activity assay (Thermo Fisher), dose-dependent inhibition by C-604; conditions: read-out: IC50 (C-604)
T1 sequence (Q9BZL6 1-878): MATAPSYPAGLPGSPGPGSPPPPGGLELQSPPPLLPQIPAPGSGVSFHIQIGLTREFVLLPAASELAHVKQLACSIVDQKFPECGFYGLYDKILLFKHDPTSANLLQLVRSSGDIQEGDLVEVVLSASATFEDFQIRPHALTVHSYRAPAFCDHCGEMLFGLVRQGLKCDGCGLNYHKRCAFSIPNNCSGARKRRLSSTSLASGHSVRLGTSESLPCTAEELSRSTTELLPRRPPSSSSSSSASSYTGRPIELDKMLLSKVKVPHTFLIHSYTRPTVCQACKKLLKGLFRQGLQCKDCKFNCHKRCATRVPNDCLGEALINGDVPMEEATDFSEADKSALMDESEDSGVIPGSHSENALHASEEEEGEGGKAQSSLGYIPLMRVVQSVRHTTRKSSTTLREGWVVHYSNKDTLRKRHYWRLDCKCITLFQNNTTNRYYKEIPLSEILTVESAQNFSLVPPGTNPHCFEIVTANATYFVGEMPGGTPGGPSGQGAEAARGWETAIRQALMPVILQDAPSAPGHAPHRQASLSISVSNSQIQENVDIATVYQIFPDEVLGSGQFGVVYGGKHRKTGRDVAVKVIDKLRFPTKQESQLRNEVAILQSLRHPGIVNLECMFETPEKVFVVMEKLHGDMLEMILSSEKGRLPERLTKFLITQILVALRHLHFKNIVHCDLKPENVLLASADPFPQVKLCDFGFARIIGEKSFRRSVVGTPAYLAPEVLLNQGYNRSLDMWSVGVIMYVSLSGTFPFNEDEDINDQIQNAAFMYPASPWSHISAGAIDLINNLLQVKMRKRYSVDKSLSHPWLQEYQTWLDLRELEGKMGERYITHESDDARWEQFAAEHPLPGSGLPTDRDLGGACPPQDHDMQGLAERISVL
Method: (§1) To identify potential C-604 off-targets, we utilised a commercially available off-target screening service (Thermo Fisher Scientific) to assess the impact of C-604 on the in vitro activity of 100 human kinases (Supplementary Fig. 8a). Out of 100 tested targets, C-604 (1 µM) inhibited GWL (inhibition 95%) and an additional 10 kinases (inhibition ≥ 80%). […] The in vitro off-target effects of compound C-604 were determined by assessing its inhibitory potential in a panel of 100 human kinases using the LanthaScreen Kinase Activity Assay (Thermo Fisher Scientific).

[2] = target: MELK (Homo sapiens, UniProt Q14680); set-up: LanthaScreen kinase activity assay (Thermo Fisher), dose-dependent inhibition by C-604; conditions: read-out: IC50 (C-604)
MELK, sequence (Q14680 whole entry): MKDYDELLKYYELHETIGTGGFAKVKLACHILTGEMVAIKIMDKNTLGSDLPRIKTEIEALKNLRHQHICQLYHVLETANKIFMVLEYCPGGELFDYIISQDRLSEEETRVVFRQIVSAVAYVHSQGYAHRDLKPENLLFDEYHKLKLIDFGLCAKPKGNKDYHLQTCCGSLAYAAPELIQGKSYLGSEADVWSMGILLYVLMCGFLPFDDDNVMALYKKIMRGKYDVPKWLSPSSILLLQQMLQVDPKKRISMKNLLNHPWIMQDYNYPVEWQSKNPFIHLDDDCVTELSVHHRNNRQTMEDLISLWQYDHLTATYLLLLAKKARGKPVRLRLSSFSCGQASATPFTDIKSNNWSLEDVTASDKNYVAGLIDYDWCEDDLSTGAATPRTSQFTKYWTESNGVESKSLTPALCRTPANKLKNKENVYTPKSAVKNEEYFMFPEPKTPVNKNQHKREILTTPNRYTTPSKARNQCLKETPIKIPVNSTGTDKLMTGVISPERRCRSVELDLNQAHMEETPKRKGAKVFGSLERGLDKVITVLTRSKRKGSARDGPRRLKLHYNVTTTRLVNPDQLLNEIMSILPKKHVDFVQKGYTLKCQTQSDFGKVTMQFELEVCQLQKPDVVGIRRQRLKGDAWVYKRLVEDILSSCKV
Method: as §1

[3] = target: MAP3K9 (Homo sapiens, UniProt P80192); set-up: LanthaScreen kinase activity assay (Thermo Fisher), dose-dependent inhibition by C-604; conditions: read-out: IC50 (C-604)
MAP3K9, sequence (P80192 whole entry): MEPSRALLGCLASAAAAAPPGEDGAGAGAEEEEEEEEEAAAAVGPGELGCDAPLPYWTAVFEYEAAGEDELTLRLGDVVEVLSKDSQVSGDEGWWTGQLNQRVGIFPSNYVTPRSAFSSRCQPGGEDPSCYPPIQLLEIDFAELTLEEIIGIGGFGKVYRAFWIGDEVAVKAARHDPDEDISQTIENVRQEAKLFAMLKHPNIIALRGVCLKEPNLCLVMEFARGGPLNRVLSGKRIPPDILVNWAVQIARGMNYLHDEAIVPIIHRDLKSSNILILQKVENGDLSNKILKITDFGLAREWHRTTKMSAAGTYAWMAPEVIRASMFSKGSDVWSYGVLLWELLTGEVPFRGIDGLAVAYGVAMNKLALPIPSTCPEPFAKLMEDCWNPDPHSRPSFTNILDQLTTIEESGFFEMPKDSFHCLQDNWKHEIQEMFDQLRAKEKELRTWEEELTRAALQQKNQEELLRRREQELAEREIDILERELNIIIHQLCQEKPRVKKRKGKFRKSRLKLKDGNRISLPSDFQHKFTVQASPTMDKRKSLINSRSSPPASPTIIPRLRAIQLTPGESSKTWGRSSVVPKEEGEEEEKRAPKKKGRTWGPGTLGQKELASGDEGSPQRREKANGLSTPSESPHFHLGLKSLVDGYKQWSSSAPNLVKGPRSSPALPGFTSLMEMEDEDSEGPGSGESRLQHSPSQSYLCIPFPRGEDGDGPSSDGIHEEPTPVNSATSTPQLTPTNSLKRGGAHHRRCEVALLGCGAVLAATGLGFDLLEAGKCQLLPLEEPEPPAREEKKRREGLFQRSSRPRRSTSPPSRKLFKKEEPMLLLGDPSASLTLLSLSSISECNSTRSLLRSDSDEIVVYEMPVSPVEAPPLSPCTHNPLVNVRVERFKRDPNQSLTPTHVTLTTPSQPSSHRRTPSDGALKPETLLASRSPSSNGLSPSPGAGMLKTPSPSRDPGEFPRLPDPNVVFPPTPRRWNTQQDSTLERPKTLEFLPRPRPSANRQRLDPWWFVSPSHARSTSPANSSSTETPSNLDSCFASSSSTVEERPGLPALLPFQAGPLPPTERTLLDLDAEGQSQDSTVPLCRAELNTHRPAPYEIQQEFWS
Method: as §1

[4] = target: MARK3 (Homo sapiens, UniProt P27448); set-up: LanthaScreen kinase activity assay (Thermo Fisher), dose-dependent inhibition by C-604; conditions: read-out: IC50 (C-604)
MARK3, sequence (P27448 whole entry): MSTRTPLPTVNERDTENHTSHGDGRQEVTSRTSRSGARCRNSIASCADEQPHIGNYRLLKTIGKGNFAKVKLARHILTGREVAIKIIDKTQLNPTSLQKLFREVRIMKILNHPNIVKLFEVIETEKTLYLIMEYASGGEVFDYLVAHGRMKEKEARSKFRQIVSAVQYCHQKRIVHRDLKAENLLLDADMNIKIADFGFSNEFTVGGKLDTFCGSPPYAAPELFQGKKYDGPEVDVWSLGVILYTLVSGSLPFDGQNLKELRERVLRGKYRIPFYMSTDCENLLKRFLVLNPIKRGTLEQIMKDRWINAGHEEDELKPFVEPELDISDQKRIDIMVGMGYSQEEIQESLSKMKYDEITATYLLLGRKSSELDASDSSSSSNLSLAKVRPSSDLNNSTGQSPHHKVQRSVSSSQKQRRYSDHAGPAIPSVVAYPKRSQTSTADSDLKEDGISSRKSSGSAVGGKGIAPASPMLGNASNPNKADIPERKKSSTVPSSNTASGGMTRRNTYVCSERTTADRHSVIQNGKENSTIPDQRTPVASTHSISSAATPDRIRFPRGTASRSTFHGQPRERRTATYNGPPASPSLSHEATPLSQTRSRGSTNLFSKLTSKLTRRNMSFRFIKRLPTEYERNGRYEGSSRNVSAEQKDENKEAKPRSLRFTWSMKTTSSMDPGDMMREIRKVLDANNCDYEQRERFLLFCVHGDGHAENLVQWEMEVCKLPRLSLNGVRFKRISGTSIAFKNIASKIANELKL
Method: as §1

[5] = target: HIPK2 (Homo sapiens, UniProt Q9H2X6); set-up: LanthaScreen kinase activity assay (Thermo Fisher), dose-dependent inhibition by C-604; conditions: read-out: IC50 (C-604)
HIPK2, sequence (Q9H2X6 whole entry): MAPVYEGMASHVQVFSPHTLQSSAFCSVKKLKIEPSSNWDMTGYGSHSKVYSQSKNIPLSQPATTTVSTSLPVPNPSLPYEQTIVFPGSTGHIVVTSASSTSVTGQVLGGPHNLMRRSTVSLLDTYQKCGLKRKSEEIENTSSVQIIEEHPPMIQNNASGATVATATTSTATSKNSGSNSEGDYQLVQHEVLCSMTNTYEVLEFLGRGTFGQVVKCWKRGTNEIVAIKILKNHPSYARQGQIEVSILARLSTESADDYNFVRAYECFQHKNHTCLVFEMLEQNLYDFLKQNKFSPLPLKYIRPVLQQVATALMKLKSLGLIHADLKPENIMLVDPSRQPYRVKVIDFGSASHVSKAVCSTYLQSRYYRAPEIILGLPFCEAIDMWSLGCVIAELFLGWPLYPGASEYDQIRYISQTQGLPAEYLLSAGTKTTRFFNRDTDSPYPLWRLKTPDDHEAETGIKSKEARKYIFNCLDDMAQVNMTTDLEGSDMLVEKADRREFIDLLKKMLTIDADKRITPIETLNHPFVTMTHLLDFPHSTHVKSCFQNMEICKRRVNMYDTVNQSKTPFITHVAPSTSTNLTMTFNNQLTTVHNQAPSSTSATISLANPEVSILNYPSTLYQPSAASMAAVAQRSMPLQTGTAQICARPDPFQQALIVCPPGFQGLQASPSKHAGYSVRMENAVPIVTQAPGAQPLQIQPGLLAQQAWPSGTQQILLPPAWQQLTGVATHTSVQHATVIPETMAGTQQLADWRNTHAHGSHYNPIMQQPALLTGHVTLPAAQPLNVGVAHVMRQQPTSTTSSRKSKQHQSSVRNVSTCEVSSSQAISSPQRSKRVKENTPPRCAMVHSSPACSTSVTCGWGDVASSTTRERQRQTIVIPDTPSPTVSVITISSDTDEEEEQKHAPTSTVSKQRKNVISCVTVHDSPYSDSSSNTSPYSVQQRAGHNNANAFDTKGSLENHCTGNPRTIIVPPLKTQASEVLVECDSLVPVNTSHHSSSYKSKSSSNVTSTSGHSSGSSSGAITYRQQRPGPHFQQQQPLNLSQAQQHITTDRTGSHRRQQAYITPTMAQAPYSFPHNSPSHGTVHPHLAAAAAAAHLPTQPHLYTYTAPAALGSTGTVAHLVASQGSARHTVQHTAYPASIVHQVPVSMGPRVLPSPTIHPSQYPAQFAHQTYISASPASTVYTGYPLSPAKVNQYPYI
Method: as §1

[6] = target: T2, STK17A (Homo sapiens, UniProt Q9UEE5); set-up: LanthaScreen kinase activity assay (Thermo Fisher), dose-dependent inhibition by C-604; conditions: read-out: IC50 (C-604)
T2 sequence (Q9UEE5 1-414): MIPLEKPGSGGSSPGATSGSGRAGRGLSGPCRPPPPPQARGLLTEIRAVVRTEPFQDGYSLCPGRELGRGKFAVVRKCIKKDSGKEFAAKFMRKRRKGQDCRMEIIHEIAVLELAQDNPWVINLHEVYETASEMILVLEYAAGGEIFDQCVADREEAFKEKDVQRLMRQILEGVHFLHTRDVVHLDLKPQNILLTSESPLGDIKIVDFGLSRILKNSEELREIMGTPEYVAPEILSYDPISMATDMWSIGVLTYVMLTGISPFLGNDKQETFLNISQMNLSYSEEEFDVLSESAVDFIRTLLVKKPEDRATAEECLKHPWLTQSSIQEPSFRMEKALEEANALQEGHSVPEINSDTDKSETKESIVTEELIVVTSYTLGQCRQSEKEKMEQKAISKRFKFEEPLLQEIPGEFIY
Method: as §1

[7] = target: T3, NUAK1 (Homo sapiens, UniProt O60285); set-up: LanthaScreen kinase activity assay (Thermo Fisher), dose-dependent inhibition by C-604; conditions: read-out: IC50 (C-604)
T3 sequence (O60285 1-661): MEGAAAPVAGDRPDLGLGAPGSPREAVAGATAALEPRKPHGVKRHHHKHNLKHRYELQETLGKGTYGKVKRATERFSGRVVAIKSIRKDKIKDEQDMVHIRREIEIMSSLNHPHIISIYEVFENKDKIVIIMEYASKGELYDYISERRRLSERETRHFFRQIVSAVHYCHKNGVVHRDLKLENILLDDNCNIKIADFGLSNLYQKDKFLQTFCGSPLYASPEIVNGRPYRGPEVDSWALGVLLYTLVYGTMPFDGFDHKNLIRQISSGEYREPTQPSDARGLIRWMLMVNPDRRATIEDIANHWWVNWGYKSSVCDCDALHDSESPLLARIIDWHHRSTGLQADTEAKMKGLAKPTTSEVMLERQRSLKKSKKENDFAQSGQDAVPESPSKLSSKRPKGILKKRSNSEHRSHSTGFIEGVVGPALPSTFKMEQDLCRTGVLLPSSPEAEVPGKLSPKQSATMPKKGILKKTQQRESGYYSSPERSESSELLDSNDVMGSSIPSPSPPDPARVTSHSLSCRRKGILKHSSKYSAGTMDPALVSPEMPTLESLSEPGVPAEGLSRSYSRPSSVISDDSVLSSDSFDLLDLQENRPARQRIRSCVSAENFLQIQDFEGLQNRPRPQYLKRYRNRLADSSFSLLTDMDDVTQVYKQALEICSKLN
Method: as §1

[8] = target: CDK1/cyclinB (Homo sapiens, UniProt P06493); set-up: CDK1/cyclin B and off-target kinase inhibition assay
CDK1/cyclinB, sequence (P06493 whole entry): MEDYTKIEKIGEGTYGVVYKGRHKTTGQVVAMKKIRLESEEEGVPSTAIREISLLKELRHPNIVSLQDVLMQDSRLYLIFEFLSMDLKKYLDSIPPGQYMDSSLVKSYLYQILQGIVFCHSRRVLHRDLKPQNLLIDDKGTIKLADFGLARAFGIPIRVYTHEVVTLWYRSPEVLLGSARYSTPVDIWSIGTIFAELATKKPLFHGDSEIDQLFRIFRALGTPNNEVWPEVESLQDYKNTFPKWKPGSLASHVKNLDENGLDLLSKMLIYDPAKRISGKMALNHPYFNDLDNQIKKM
CDK1/cyclinB, sequence (P14635 whole entry partner): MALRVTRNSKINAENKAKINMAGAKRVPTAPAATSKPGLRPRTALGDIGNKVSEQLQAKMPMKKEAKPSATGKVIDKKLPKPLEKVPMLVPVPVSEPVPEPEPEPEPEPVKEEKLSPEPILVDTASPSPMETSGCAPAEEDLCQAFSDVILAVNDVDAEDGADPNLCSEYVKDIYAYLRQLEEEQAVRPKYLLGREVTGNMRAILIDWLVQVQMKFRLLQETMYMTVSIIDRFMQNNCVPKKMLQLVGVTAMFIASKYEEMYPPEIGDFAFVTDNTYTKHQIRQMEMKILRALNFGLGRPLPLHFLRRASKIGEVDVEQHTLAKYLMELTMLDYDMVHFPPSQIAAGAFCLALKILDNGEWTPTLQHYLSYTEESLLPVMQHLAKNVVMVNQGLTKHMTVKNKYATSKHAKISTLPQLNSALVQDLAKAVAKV

SMILES: CNC(=O)c1c[nH]c2ncc(-c3ccc(OCCN4CCC(c5ccccc5)C4)cc3)nc12 (racemic) [compound 21, C-604]
- pIC50 [1]: 6.43
- pIC50 [2]: 7.77
- pIC50 [3]: 7.53
- pIC50 [4]: 6.32
- pIC50 [5]: 7.37
- pIC50 [6]: 6.81
- pIC50 [7]: 8.00
- pIC50 [8]: < 4.52
